Reference: PubChem BioAssay (NCI)
Several values for one entry are separate records, joined by “and”; a condition that tells them apart may be missing. Identical values can stand only once.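 Cells were grown in 96-well plates and exposed to each compound for 48 hours at five concentrations; endpoints were interpolated linearly between bracketing concentrations, or set to the highest concentration if not reached. Abbreviation: GI50, concentration required for 50% inhibition of growth. TGI is the concentration that stops growth completely.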

Key:
Assay in all cases: NCI tumour cell line growth inhibition, 48 h
ACHN renal = test system: ACHN renal
KM12 colon = test system: KM12 colon
OVCAR-4 ovarian = test system: OVCAR-4 ovarian
OVCAR-8 ovarian = test system: OVCAR-8 ovarian
SK-OV-3 ovarian = test system: SK-OV-3 ovarian
MDA-MB-231 breast = test system: MDA-MB-231 breast
MDA-MB-435 = test system: MDA-MB-435
RXF 393 renal = test system: RXF 393 renal
NCI/ADR-RES ovarian = test system: NCI/ADR-RES ovarian
SR leukemia = test system: SR leukemia

| Structure (SMILES) | GI50 (ACHN renal) | TGI (ACHN renal) | GI50 (KM12 colon) | TGI (KM12 colon) | GI50 (OVCAR-4 ovarian) | TGI (OVCAR-4 ovarian) | GI50 (OVCAR-8 ovarian) | TGI (OVCAR-8 ovarian) | GI50 (SK-OV-3 ovarian) | TGI (SK-OV-3 ovarian) | GI50 (MDA-MB-231 breast) | TGI (MDA-MB-231 breast) | GI50 (MDA-MB-435) | TGI (MDA-MB-435) | GI50 (RXF 393 renal) | TGI (RXF 393 renal) | GI50 (NCI/ADR-RES ovarian) | TGI (NCI/ADR-RES ovarian) | GI50 (SR leukemia) | TGI (SR leukemia) |
| --- | --- | --- | --- | --- | --- | --- | --- | --- | --- | --- | --- | --- | --- | --- | --- | --- | --- | --- | --- | --- |
| COc1ccc(-c2nc(N3CCN(C(=O)C4CCCCC4)CC3)c3c4c(sc3n2)CCCC4)cc1 | 23.9 µM | > 100 µM | > 100 µM | > 100 µM | > 100 µM | > 100 µM | 46.4 µM | > 100 µM | 25.2 µM | 71.7 µM | 19.4 µM | 82.8 µM | > 100 µM | > 100 µM | 21.3 µM | 53.4 µM | > 100 µM | > 100 µM | > 100 µM | > 100 µM |
| Nc1c(C(=O)c2ccc(CCCN3CCOCC3)cc2)cnn1-c1ccc(F)cc1 | > 25 µM | > 25 µM | > 25 µM | > 25 µM | > 19.1 µM | > 25 µM | > 25 µM | > 25 µM | > 25 µM | > 25 µM | > 25 µM | > 25 µM | > 25 µM | > 25 µM | > 25 µM | > 25 µM | > 25 µM | > 25 µM | > 20.4 µM | > 25 µM |
| CCCCCCCCCCCCOC1C(C(CC(=O)N2CCN(c3cccc(C(F)(F)F)c3)CC2)NS(=O)(=O)c2cc(Cl)cc(Cl)c2)OC2OC(C)(C)OC21 (centres undefined) | > 100 µM | > 100 µM | > 100 µM | > 100 µM | > 100 µM | > 100 µM | > 100 µM | > 100 µM | > 100 µM | > 100 µM | > 100 µM | > 100 µM | > 100 µM | > 100 µM | > 100 µM | > 100 µM | > 100 µM | > 100 µM | > 100 µM | > 100 µM |
| CCCCCCc1nc2nc(Cl)c(Cl)nc2[nH]1 | 6.94 µM | > 100 µM | 6.88 µM | > 100 µM | 6.33 µM | > 100 µM | > 100 µM | > 100 µM | > 100 µM | > 100 µM | 35.9 µM | > 100 µM | 8.68 µM | > 100 µM | 7.55 µM | > 100 µM | 6.92 µM | > 100 µM | 8.98 µM | > 100 µM |
| O=c1c2ccccc2c2ccccc2c(=O)n1Cc1ccc2c(c1)OCO2 | – | > 100 µM | – | > 100 µM | – | > 100 µM | – | > 100 µM | – | > 100 µM | – | > 100 µM | – | 55.7 µM | – | > 84.2 µM | – | > 75.7 µM | – | 84.5 µM |
| CCc1cc2c(cc1N1CCC(N3CCOCC3)CC1)C(C)(C)c1[nH]c3cc(C#N)ccc3c1C2=O | 1.92 µM and 1.54 µM and 1.41 µM | 4.54 µM and 3.35 µM and 4.67 µM | 0.336 µM and 0.345 µM and 0.347 µM | 5.36 µM and 3.41 µM and > 10 µM | 0.648 µM and 1.35 µM and 1.63 µM | 2.26 µM and 2.86 µM and 3.59 µM | 0.648 µM and 0.935 µM and 1.3 µM | 2.48 µM and 3.11 µM and 3.57 µM | 1.64 µM and 1.87 µM and 2.84 µM | 3.4 µM and 3.72 µM and 8.64 µM | 1.53 µM and 1.71 µM and 2.11 µM | 5.21 µM and 4.65 µM and 6.37 µM | 1.46 µM and 1.34 µM and 2.1 µM | 5.97 µM and 5.53 µM and > 10 µM | 1.5 µM and 1.53 µM | 3.47 µM and 3.78 µM and 3.84 µM | 1.01 µM and 1.39 µM and 1.59 µM | 3.81 µM and 6.34 µM and 6.47 µM | < 0.0149 µM and 0.0165 µM and 0.0525 µM | – |
| COc1cc(-c2ncn(/C=C\C(=O)OC(C)C)n2)cc(C(F)(F)F)c1 | 0.0605 µM and 0.0657 µM | 12.9 µM and 13 µM | 0.368 µM and 0.309 µM | 12.2 µM and 4.32 µM | 0.0684 µM and 0.0407 µM | 4.18 µM and 9.49 µM | 0.045 µM and 0.031 µM | 11.4 µM and 1.41 µM | 0.357 µM and 0.179 µM | 16.9 µM and 15.1 µM | 0.065 µM and 0.0398 µM | 4.81 µM and 7.12 µM | 0.0437 µM and 0.0485 µM | 0.702 µM and 0.457 µM | < 0.0139 µM and 0.0146 µM | 0.0824 µM and 0.0725 µM | 0.0658 µM and 0.0944 µM | 11.5 µM and 12.7 µM | 0.0354 µM | 14.3 µM and > 100 µM |
